Earlier results as cited in patent publication US12377095B2, “Use of ligustrazine nitrone derivatives in treatment and prevention of diabetic complication diseases” (QINGDAO HAILAN PHARMACEUTICALS CO., LTD., priority 2019, dated 2025).
Where two headings read alike, the source gives them in different places.

Columns and labels:
[1] = tested on: rats with diabetic nephropathy; conditions: rats with diabetic nephropathy induced by streptozotocin; cited from earlier work
[2] = tested on: human renal proximal tubule cells; conditions: cited from earlier work
[3] = tested on: patients with diabetic nephropathy; conditions: cited from earlier work
[4] = tested on: patients with type 2 diabetes with peripheral neuropathy; conditions: cited from earlier work
[5] = rabbit, intraperitoneal injection of tetramethylpyrazine hydrochloride; cited from earlier work
[6] = tested on: patients with diabetic retinopathy; conditions: electronically controlled tetramethylpyrazine ion added to puerarin injection and Zishen Jianpi Huayu Recipe; control group 67.50%; cited from earlier work
[7] = combined application vs conventional treatment group

## Cc1nc(C)c(C)nc1C [tetramethylpyrazine, Tetramethylpyrazine]
[1]
  blood glucose: down-regulate
  renal function: significantly improve
  urine protein exclusion: down-regulate
[2]
  activity against sodium arsenite-induced damage: protective activity
[3]; [7]
  24 h total urine proteins: reduce
  24 h urinary albumin excretion rate: reduce
  24 h urine protein quantitation: reduce
  effect on reduction of blood urea nitrogen: not significant
  effect on reduction of diastolic blood pressure: not significant
  effect on reduction of systolic blood pressure: not significant
[3]; tetramethylpyrazine injection, patients with diabetic nephropathy
  adverse reaction during the use: no indication of serious adverse reaction
[4]; conventional dose injection 80 mg/d
  total effective rate of treatment: 82.93%
[4]; injection 360-400 mg/d, intravenous drops, 12 d course
  total effective rate of treatment: 95%
[5]
  entry into retinal tissue: can enter the retinal tissue through the blood-retinal barrier
[6]
  total effective rate: 86.84%
